Consider nine molecules from patent publication US20230389542A1, “USE OF [(1,5-DIPHENYL-1H-PYRAZOL-3-YL)OXY] ACETIC ACID DERIVATIVES AND THEIR SALTS AND COMPOSITIONS CONTAINING THEM, FOR REDUCING PHYTOTOXIC EFFECTS OF AGROCHEMICALS, IN PARTICULAR OF HERBICIDES, IN USEFUL PLANTS AND CROP PLANTS” (BAYER AKTIENGESELLSCHAFT, priority 2020, published 2023).

What all share (type): in vivo
Assay [1] relates to summer wheat (TRZAS; cv. Triso). The assay is described as follows: Relative action (efficacy code): reduction of damage by mesosulfuron-methyl on summer wheat. The arrangement: key: 0: no reduction in damage (appearance corresponding to the herbicide control); 1: slight reduction in damage; 2: distinct reduction in damage; 3: significant reduction in damage; 4: complete reduction in damage (appearance corresponding to the untreated control). Conditions: visual, 9-13 days after application. As for the experimental part:
2.3 Relative Action of Selected Compounds of the Invention Using the Example of Reduction of Damage by Mesosulfuron-Methyl on Summer Wheat (TRZAS) The seeds of the crop plants to be treated are laid out in sandy loam in plastic pots (diameter μ4 cm), covered with soil and grown in a greenhouse under good conditions for germination and growth. The trial plants were treated at the early leaf stage (BBCH10-BBCH12). In the course of this, the inventive compounds of the general formula (I) formulated in the form of wettable powders (WP) were sprayed onto the above-ground parts of the plants as an aqueous suspension with a water application rate corresponding to 800 l/ha with addition of wetting agent (e.g. 0.2% Genapol-LRO or 0.2% Mero) in the specified dose. This was followed by the application of the herbicide. For this purpose, mesosulfuron-methyl, formulated in the form of water-dispersible granules (WG), was sprayed onto the above-ground parts of the plants in the form of an aqueous dispersion with a water application rate corresponding to 800 l/ha with addition of wetting agent (e.g. 0.2% Genapol-LRO or 1 l/ha Biopower) in a dose of 40-60 g/ha. The dose of the herbicide was chosen here such that it causes visually apparent damage (min. 30%, max. 75%) compared to untreated crop plants at the evaluation time on a control group of crop plants without safener treatment that were included in the same trial. After application, the plants were cultivated under good growth conditions in a greenhouse. 9-13 days after application, the efficacy of the test compounds was assessed visually. For this purpose, the appearance of the plants treated with the test compound and herbicide was compared to the corresponding herbicide controls (without safener; with clearly visible damage) and the untreated controls (without damage). The damage-reducing effect of the test compounds was expressed here in graded efficacy codes according to the following scheme: • 0: no reduction in damage (appearance corresponding to the herbicide control) • 1: slight reduction in damage • 2: distinct reduction in damage • 3: significant reduction in damage • 4: complete reduction in damage (appearance corresponding to the untreated control) The trials show clear efficacy of the inventive compounds selected by way of example with regard to the reduction in damage to the summer wheat crop plant (TRZAS; cv. Triso) caused by the herbicide mesosulfuron-methyl: […]

Assay [2] concerns summer barley (HORVS; cv. Montoya). The assay is described as follows: Relative action (efficacy code): reduction of damage by mesosulfuron-methyl on summer barley. The arrangement: key: 0: no reduction in damage (appearance corresponding to the herbicide control); 1: slight reduction in damage; 2: distinct reduction in damage; 3: significant reduction in damage; 4: complete reduction in damage (appearance corresponding to the untreated control). As to conditions: visual, 9-13 days after application, 2 repeats coded separately. The procedure: 2.4 Relative Action of Selected Compounds of the Invention Using the Example of Reduction of Damage by Mesosulfuron-Methyl on Summer Barley (HORVS) The seeds of the crop plants to be treated are laid out in sandy loam in plastic pots (diameter˜4 cm), covered with soil and grown in a greenhouse under good conditions for germination and growth. The trial plants were treated at the early leaf stage (BBCH10-BBCH12). In the course of this, the inventive compounds of the general formula (I) formulated in the form of wettable powders (WP) were sprayed onto the above-ground parts of the plants as an aqueous suspension with a water application rate corresponding to 800 l/ha with addition of wetting agent (e.g. 0.2% Genapol-LRO or 0.2% Mero) in the specified dose. This was followed by the application of the herbicide. For this purpose, mesosulfuron-methyl, formulated in the form of water-dispersible granules (WG), was sprayed onto the above-ground parts of the plants in the form of an aqueous dispersion with a water application rate corresponding to 800 l/ha with addition of wetting agent (e.g. 0.2% Genapol-LRO or 1 l/ha Biopower) in a dose of 40-60 g/ha. The dose of the herbicide was chosen here such that it causes visually apparent damage (min. 30%, max. 75%) compared to untreated crop plants at the evaluation time on a control group of crop plants without safener treatment that were included in the same trial. After application, the plants were cultivated under good growth conditions in a greenhouse. 9-13 days after application, the efficacy of the test compounds was assessed visually. For this purpose, the appearance of the plants treated with the test compound and herbicide was compared to the corresponding herbicide controls (without safener; with clearly visible damage) and the untreated controls (without damage). The damage-reducing effect of the test compounds was expressed here separately for 2 repeats in graded efficacy codes according to the following scheme: • 0: no reduction in damage (appearance corresponding to the herbicide control) • 1: slight reduction in damage • 2: distinct reduction in damage • 3: significant reduction in damage • 4: complete reduction in damage (appearance corresponding to the untreated control) The trials show clear efficacy of the inventive compounds selected by way of example with regard to the reduction in damage to the summer barley crop plant (HORVS; cv. Montoya) caused by the herbicide mesosulfuron-methyl: […]

For assay [3], the system named is summer wheat (TRZAS; cv. Triso). In words: Absolute action: reduction of damage by mesosulfuron-methyl on summer wheat, greenhouse post-emergence. As to conditions: for Herbicide damage with compound of the formula (I): visual, 14-21 days after application. The arrangement: key to Absolute reduction in damage (difference): percentage points of visual damage (0-100% scale vs untreated). The procedure:
(§1) 2.1 Absolute Action of Selected Compounds of the Invention Using the Example of Reduction of Damage by Mesosulfuron-Methyl on Summer Wheat (TRZAS) The seeds of the crop plants to be treated are laid out in sandy loam in wood fiber or plastic pots (diameter ˜4 cm), covered with soil and grown in a greenhouse under good conditions for germination and growth. The trial plants were treated at the early leaf stage (BBCH10-BBCH12). In the course of this, the inventive compounds of the general formula (D formulated in the form of wettable powders (WP) were sprayed onto the above-ground parts of the plants as an aqueous suspension with a water application rate corresponding to 800 l/ha with addition of wetting agent (e.g. 0.2% agrotin) in the specified dose. This was followed by the application of the herbicide. For this purpose, mesosulfuron-methyl, formulated in the form of water-dispersible granules (WG), was sprayed onto the above-ground parts of the plants in the form of an aqueous dispersion with a water application rate corresponding to 800 l/ha with addition of wetting agent (e.g. 0.2% agrotin) in a dose of 20 g/ha. The dose of the herbicide was chosen here such that it causes visually apparent damage (min. 30%, max. 75%) compared to untreated crop plants at the evaluation time on a control group of crop plants without safener treatment that were included in the same trial. After application, the plants were cultivated under good growth conditions in a greenhouse. The damage was visually assessed 14-21 days after application. The damage effect was assessed visually on a scale of 0-100% by comparison with untreated control plants, and averaged over 2-3 repeats per treatment. Examples: • 0%=no noticeable effect compared to the untreated plant • 20%=the treated plant population has 20% damage compared to the untreated control population (e.g. growth height, leaf damage, etc.) • 100%=treated plants completely damaged/killed.

For assay [4], the system named is summer barley (HORVS; cv. Montoya). In words: Absolute action: reduction of damage by mesosulfuron-methyl on summer barley, greenhouse post-emergence. Details: key to Absolute reduction in damage (difference): difference in % damage (0-100% visual scale vs untreated control). As to conditions: for Herbicide damage with compound of the formula (I): visual, 14-21 days after application. The procedure: as §1, with “2.2” for “2.1”, “Barley (HORVS)” for “Wheat (TRZAS)”, “(I)” for “(D”

Where [5] appears, read: safener 100 g/ha + mesosulfuron-methyl 40-60 g/ha.
Where [6] appears, read: safener 500 g/ha + mesosulfuron-methyl 40-60 g/ha.
Where [7] appears, read: safener 500 g/ha + mesosulfuron-methyl 20 g/ha.
[8] abbreviates: safener 125 g/ha + mesosulfuron-methyl 20 g/ha.

Turning to `O=C(O)COc1cc(-c2ccc(F)cc2F)n(-c2ccc(Cl)cc2F)n1` [I.42-49], the “Efficacy of the safener (efficacy code)” value is on record as 3 in assay [1] (setting [5]), 4 in assay [1] (setting [6]), 2-3 in assay [2] (setting [5]) and 3 in assay [2] (setting [6]).

For the molecule `COC(=O)COc1cc(-c2ccc(F)cc2F)n(-c2ccc(Cl)cc2F)n1` [I.40-49], the “Efficacy of the safener (efficacy code)” value in assay [1] (setting [5]) was 3; in assay [1] (setting [6]), 3; in assay [2] (setting [5]), 2; in assay [2] (setting [6]) it was 2-3.

On to `CCOC(=O)COc1cc(-c2ccc(F)cc2Cl)n(-c2ccc(Cl)cc2F)n1` [I.50-49], for which the “Efficacy of the safener (efficacy code)” value in assay [1] (setting [5]) was 2; in assay [1] (setting [6]), 3; in assay [2] (setting [5]), 2-3; in assay [2] (setting [6]), 3.

Consider `CCOC(=O)COc1cc(-c2ccc(F)cc2)n(-c2ccc(Cl)cc2Cl)n1` [I.11-32], for which the “Efficacy of the safener (efficacy code)” value in assay [1] (setting [5]), in assay [1] (setting [6]) and in assay [2] (setting [6]) was 2 in each case.

With `CCOC(=O)COc1cc(-c2ccc(F)cc2F)n(-c2ccc(F)cc2F)n1` [I.41-38], in assay [3] (setting [7]), the “Absolute reduction in damage (difference)” value is reported as 40 and the “Herbicide damage with compound of the formula (I)” value (from here on “Herbicide damage with compound”) is given as 13%. Besides, in assay [4] (setting [7]), the “Absolute reduction in damage (difference)” value came to 33 and the “Herbicide damage with compound” value was determined as 27%.

For the molecule `CCOC(=O)COc1cc(-c2ccc(Cl)cc2F)n(-c2ccc(F)cc2Cl)n1` [I.47-48], the “Efficacy of the safener (efficacy code)” value in assay [1] (setting [5]) was 3; in assay [1] (setting [6]), 4; in assay [2] (setting [5]), 2; in assay [2] (setting [6]), 3.

Consider `CCOC(=O)COc1cc(-c2ccc(F)cc2F)n(-c2ccc(Cl)cc2F)n1` [I.41-49], for which the “Efficacy of the safener (efficacy code)” value is reported as 3 in assay [1] (setting [5]), 4 in assay [1] (setting [6]), 2 in assay [2] (setting [5]) and 2 in assay [2] (setting [6]).

For `CCOC(=O)COc1cc(-c2ccc(F)cc2)n(-c2ccc(F)cc2F)n1` [I.11-38], the “Absolute reduction in damage (difference)” value came out at 43 in assay [3] (setting [8]), 43 in assay [3] (setting [7]), 23 in assay [4] (setting [8]) and 33 in assay [4] (setting [7]). Moreover, the “Herbicide damage with compound” value is recorded as 10% in assay [3] (setting [8]), 10% in assay [3] (setting [7]), 37% in assay [4] (setting [8]) and 27% in assay [4] (setting [7]).

Turning to `CCOC(=O)COc1cc(-c2ccc(Cl)cc2F)n(-c2ccc(Cl)cc2F)n1` [I.47-49], the “Efficacy of the safener (efficacy code)” value is 3 in assay [1] (setting [6]), 2 in assay [2] (setting [5]) and 3 in assay [2] (setting [6]).
